In general, Ki refers to the equilibrium dissociation constant of an inhibitor or competing ligand from its target. A high value points to a looser hold on the target. The term CL/F denotes clearance divided by bioavailability, as obtained after extravascular dosing. One may read the Tmax as the time from dosing to the highest level. One may read the half-life as the time in which the quantity being followed falls by half. A lower half-life goes with rapid decline.

The text below walks through data of patent US11542313B2, “Incretin analogs and uses thereof” (Eli Lilly and Company, priority 2017, dated 2023).

The structures appear in SMILES notation.

One series concerns the target T1, GLP-1 receptor (GLP-1R) (Homo sapiens, UniProt P43220).
T1 construct: expressed in transfected cells; host or cells: HEK293 (membranes)
Put plainly: Radioligand competition binding (SPA), human GLP-1R membranes. An excerpt: (§1) Radioligand competition binding assays are run to determine the equilibrium dissociation constant for exemplary compounds and comparator molecules.
(§2) Competition curves are plotted as the percent specific inhibition (y-axis) versus log concentration of compound (x-axis) and analyzed using a four parameter nonlinear regression fit with variable slope (ABase or Genedata).
(In a radioligand displacement assay an active substance lowers the binding of a labelled ligand.)

For series [1], the target named is T2, human glucagon receptor (GcgR) (Homo sapiens, UniProt P47871).
T2 construct: expressed in transfected cells; host or cells: HEK293 (membranes)
Briefly: Radioligand competition binding (SPA), human GcgR membranes.
From the text: as §1, §2

Series [2] has as its target T3, human GIP receptor (GIPR) (Homo sapiens, UniProt P48546).
T3 construct: expressed in transfected cells; host or cells: HEK293 (membranes)
T3 sequence (P48546 22-466): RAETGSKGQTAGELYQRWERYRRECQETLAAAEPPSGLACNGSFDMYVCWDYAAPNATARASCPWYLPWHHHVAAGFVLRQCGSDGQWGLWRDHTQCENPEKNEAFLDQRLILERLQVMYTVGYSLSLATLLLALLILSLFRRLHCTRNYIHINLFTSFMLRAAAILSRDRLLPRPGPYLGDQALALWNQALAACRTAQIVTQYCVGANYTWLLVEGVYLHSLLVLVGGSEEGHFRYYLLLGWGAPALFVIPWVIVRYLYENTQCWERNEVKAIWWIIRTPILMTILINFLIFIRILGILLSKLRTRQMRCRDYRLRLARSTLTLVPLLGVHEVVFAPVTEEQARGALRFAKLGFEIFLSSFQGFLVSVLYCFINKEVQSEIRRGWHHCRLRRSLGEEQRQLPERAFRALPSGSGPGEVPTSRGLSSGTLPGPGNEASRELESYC
Put plainly: Radioligand competition binding (SPA), human GIPR membranes.
From the text: as §1, §2

The nature of series [3]: Pharmacokinetics in male Sprague Dawley rats. The note with it: for CL/F / Tmax / half-life: male, Sprague-Dawley, rat, plasma, sc, 100 nmol/kg; for AUCINF_D_obs / Cmax/D: single subcutaneous 100 nMol/kg, male Sprague Dawley rats, n = 3.

T2 sequence (P47871 26-477): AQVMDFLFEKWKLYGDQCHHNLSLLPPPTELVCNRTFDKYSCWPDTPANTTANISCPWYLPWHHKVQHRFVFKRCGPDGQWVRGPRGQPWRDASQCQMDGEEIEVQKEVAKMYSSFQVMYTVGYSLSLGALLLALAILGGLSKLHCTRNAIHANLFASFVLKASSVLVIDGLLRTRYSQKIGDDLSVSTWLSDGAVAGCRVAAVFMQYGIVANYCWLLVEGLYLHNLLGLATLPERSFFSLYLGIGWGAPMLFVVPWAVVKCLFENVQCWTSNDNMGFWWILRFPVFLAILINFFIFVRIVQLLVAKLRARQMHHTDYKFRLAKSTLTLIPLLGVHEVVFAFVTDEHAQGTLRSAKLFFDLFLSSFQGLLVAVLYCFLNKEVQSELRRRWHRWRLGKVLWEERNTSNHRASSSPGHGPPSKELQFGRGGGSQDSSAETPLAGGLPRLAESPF
T1 sequence (P43220 24-463): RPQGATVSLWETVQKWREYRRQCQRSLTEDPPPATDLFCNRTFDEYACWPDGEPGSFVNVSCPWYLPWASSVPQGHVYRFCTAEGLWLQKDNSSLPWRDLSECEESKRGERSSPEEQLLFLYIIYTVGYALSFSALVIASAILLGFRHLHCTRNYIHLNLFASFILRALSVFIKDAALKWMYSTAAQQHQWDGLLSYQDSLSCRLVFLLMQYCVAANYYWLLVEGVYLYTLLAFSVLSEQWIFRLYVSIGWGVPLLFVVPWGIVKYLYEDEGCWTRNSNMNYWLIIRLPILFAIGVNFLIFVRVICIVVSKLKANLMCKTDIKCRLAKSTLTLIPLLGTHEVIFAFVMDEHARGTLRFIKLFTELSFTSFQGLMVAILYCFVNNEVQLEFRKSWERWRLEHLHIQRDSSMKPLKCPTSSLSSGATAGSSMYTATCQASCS

On GLP-1 receptor (GLP-1R), `CC[C@H](C)[C@H](NC(=O)[C@H](Cc1ccccc1)NC(=O)[C@H](C)NC(=O)C(C)(C)NC(=O)[C@H](CCC(N)=O)NC(=O)[C@H](C)NC(=O)[C@H](CCCCNC(=O)COCCOCCNC(=O)COCCOCCNC(=O)CC[C@H](NC(=O)CCCCCCCCCCCCCCCCCCC(=O)O)C(=O)O)NC(=O)[C@H](CCCCN)NC(=O)[C@H](CC(=O)O)NC(=O)[C@H](CC(C)C)NC(=O)[C@H](CC(C)C)NC(=O)[C@@H](NC(=O)[C@H](CO)NC(=O)[C@H](Cc1ccc(O)cc1)NC(=O)[C@H](CC(=O)O)NC(=O)[C@H](CO)NC(=O)[C@@H](NC(=O)[C@H](Cc1ccccc1)NC(=O)[C@@H](NC(=O)CNC(=O)[C@H](CCC(N)=O)NC(=O)C(C)(C)NC(=O)[C@@H](N)Cc1ccc(O)cc1)[C@@H](C)O)[C@@H](C)O)[C@@H](C)CC)C(=O)N[C@@H](CCC(=O)O)C(=O)N[C@@H](Cc1ccc(O)cc1)C(=O)N[C@@H](CC(C)C)C(=O)N[C@@H](CC(C)C)C(=O)N[C@@H](CCC(=O)O)C(=O)NCC(=O)NCC(=O)N1CCC[C@H]1C(=O)N[C@@H](CO)C(=O)N[C@@H](CO)C(=O)NCC(=O)N[C@@H](C)C(=O)N1CCC[C@H]1C(=O)N1CCC[C@H]1C(=O)N1CCC[C@H]1C(=O)N[C@@H](CO)C(N)=O` [Example 16] had a Ki of 16.1 nM. This compound also had a Ki in series [1] of 11.5 nM. The compound also showed a Ki in series [2] of 0.106 nM. Also, in series [3], the CL/F is 3.6 mL/h/kg, the Tmax is 20 h, the half-life was 29.1 h and the AUCINF_D_obs is reported as 274.9 hr*kg*nmol/L/nmol. In series [3], this compound had a Cmax/D of 3.8 kg*nmol/L/nmol.

On GLP-1 receptor (GLP-1R), `CC[C@H](C)[C@H](NC(=O)[C@H](Cc1ccccc1)NC(=O)[C@H](C)NC(=O)C(C)(C)NC(=O)[C@H](CCC(N)=O)NC(=O)[C@H](C)NC(=O)[C@H](CCCCNC(=O)COCCOCCNC(=O)CC[C@H](NC(=O)CCCCCCCCCCCCCCCCCCC(=O)O)C(=O)O)NC(=O)[C@H](CCCCN)NC(=O)[C@H](CC(=O)O)NC(=O)[C@H](CC(C)C)NC(=O)[C@H](CC(C)C)NC(=O)[C@@H](NC(=O)[C@H](CO)NC(=O)[C@H](Cc1ccc(O)cc1)NC(=O)[C@H](CC(=O)O)NC(=O)[C@H](CO)NC(=O)[C@@H](NC(=O)[C@H](Cc1ccccc1)NC(=O)[C@@H](NC(=O)CNC(=O)[C@H](CCC(N)=O)NC(=O)C(C)(C)NC(=O)[C@@H](N)Cc1ccc(O)cc1)[C@@H](C)O)[C@@H](C)O)[C@@H](C)CC)C(=O)N[C@@H](CCC(=O)O)C(=O)N[C@@H](Cc1ccc(O)cc1)C(=O)N[C@@H](CC(C)C)C(=O)N[C@@H](CC(C)C)C(=O)N[C@@H](CCC(=O)O)C(=O)NCC(=O)NCC(=O)N1CCC[C@H]1C(=O)N[C@@H](CO)C(=O)N[C@@H](CO)C(=O)NCC(=O)N[C@@H](C)C(=O)N1CCC[C@H]1C(=O)N1CCC[C@H]1C(=O)N1CCC[C@H]1C(=O)N[C@@H](CO)C(N)=O` [Example 18] showed a Ki of 8.06 nM. The affinity in series [1] corresponds to a Ki of 5.71 nM. In series [2], this compound registered a Ki of 0.0835 nM. For the same compound, in series [3], the CL/F is 3.6 mL/h/kg, the Tmax was 24 h, the half-life is 34.8 h and the AUCINF_D_obs was 284.3 hr*kg*nmol/L/nmol. The same compound registered a Cmax/D in series [3] of 5.0 kg*nmol/L/nmol.
